Measurements from the supplement of paper PMC4862054.

System: BT-474
Experiment: drug sensitivity score (DSS), CellTiter-Glo (DSS (AUC-based score)); higher = stronger drug effect (viability inhibition or cytotoxicity); extreme values may be limits of the assay
Details: incubation time: 72 h
In short: (§1)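 The drug sensitivity score was computed from the area under the fitted dose-response curve. Breast cancer cell lines in 20 µl suspension went into 384-well plates holding compound at 5 concentrations (10-fold steps over a 10,000-fold, compound-specific range) for 72 h of incubation. CellTox Green fluorescence (485/520 nm) was read before CellTiter-Glo luminescence, the latter after 10 min at room temperature, and each plate was normalised to 0.1 % DMSO and a positive kill control.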

Structure (SMILES)	drug sensitivity score
C[C@@H]1C=C2C(=O)O[C@@H]3CC[C@H](C1)[C@]23O [Galiellalactone]	0
C[C@@H]1CCN(C(=O)CC#N)C[C@@H]1N(C)c1ncnc2[nH]ccc12 [Tofacitinib]	0
Nc1nccc(-c2c(-c3ccc(F)cc3)ncn2C2CCCCC2)n1	0.373
CCOc1cc2ncc(C#N)c(Nc3ccc(OCc4ccccn4)c(Cl)c3)c2cc1NC(=O)/C=C/CN(C)C [Neratinib]	0
C[C@@]1(C(=O)Nc2ccc(F)nc2)CCCN1c1nc(Nc2cc(C3CC3)n[nH]2)c2cccn2n1	9.15
C#Cc1cccc(Nc2ncnc3cc(OC)c(OCCCCCCC(=O)NO)cc23)c1 [CUDC-101]	7.85
COc1ncc(-c2ccc3nccc(-c4ccnnc4)c3c2)cc1NS(=O)(=O)c1ccc(F)cc1F	11.2
Cn1c(=O)c(F)c(Nc2ccc(I)cc2F)c2c(=O)n(C[C@@H](O)CO)cnc21 [TAK-733]	6.85
COC1=CC(c2cc3ccccc3[nH]2)=N/C1=C\c1[nH]c(C)cc1C [Obatoclax]	7.09
CS(=O)(=O)OCCCCOS(C)(=O)=O [Busulfan]	0.000307
COc1cccc2c1C(=O)c1c(O)c3c(c(O)c1C2=O)C[C@@](O)(C(C)=O)C[C@@H]3O[C@H]1C[C@H](N)[C@H](O)[C@H](C)O1 [Daunorubicin]	7.33
FC(F)c1nc2ccccc2n1-c1nc(N2CCOCC2)nc(N2CCOCC2)n1 [ZSTK474]	6.3
CN1CCN(c2ccc3nc(-c4c(N)c5c(F)cccc5[nH]c4=O)[nH]c3c2)CC1 [Dovitinib]	0

System: BT-549
Experiment: as above
Details: incubation time: 72 h
In short: as §1

Structure (SMILES)	drug sensitivity score
C[C@@H]1C=C2C(=O)O[C@@H]3CC[C@H](C1)[C@]23O [Galiellalactone]	2.89
C[C@@H]1CCN(C(=O)CC#N)C[C@@H]1N(C)c1ncnc2[nH]ccc12 [Tofacitinib]	0
Nc1nccc(-c2c(-c3ccc(F)cc3)ncn2C2CCCCC2)n1	0
CCOc1cc2ncc(C#N)c(Nc3ccc(OCc4ccccn4)c(Cl)c3)c2cc1NC(=O)/C=C/CN(C)C [Neratinib]	0
C[C@@]1(C(=O)Nc2ccc(F)nc2)CCCN1c1nc(Nc2cc(C3CC3)n[nH]2)c2cccn2n1	9.6
C#Cc1cccc(Nc2ncnc3cc(OC)c(OCCCCCCC(=O)NO)cc23)c1 [CUDC-101]	9
COc1ncc(-c2ccc3nccc(-c4ccnnc4)c3c2)cc1NS(=O)(=O)c1ccc(F)cc1F	16.8
Cn1c(=O)c(F)c(Nc2ccc(I)cc2F)c2c(=O)n(C[C@@H](O)CO)cnc21 [TAK-733]	0.999
COC1=CC(c2cc3ccccc3[nH]2)=N/C1=C\c1[nH]c(C)cc1C [Obatoclax]	5.4
CS(=O)(=O)OCCCCOS(C)(=O)=O [Busulfan]	0
COc1cccc2c1C(=O)c1c(O)c3c(c(O)c1C2=O)C[C@@](O)(C(C)=O)C[C@@H]3O[C@H]1C[C@H](N)[C@H](O)[C@H](C)O1 [Daunorubicin]	9.34
FC(F)c1nc2ccccc2n1-c1nc(N2CCOCC2)nc(N2CCOCC2)n1 [ZSTK474]	13.1
CN1CCN(c2ccc3nc(-c4c(N)c5c(F)cccc5[nH]c4=O)[nH]c3c2)CC1 [Dovitinib]	0

System: CAL-120
Experiment: as above
Details: incubation time: 72 h
In short: as §1

Structure (SMILES)	drug sensitivity score
C[C@@H]1C=C2C(=O)O[C@@H]3CC[C@H](C1)[C@]23O [Galiellalactone]	0
C[C@@H]1CCN(C(=O)CC#N)C[C@@H]1N(C)c1ncnc2[nH]ccc12 [Tofacitinib]	0
Nc1nccc(-c2c(-c3ccc(F)cc3)ncn2C2CCCCC2)n1	0
CCOc1cc2ncc(C#N)c(Nc3ccc(OCc4ccccn4)c(Cl)c3)c2cc1NC(=O)/C=C/CN(C)C [Neratinib]	1.19
C[C@@]1(C(=O)Nc2ccc(F)nc2)CCCN1c1nc(Nc2cc(C3CC3)n[nH]2)c2cccn2n1	10.3
C#Cc1cccc(Nc2ncnc3cc(OC)c(OCCCCCCC(=O)NO)cc23)c1 [CUDC-101]	5.5
COc1ncc(-c2ccc3nccc(-c4ccnnc4)c3c2)cc1NS(=O)(=O)c1ccc(F)cc1F	13
Cn1c(=O)c(F)c(Nc2ccc(I)cc2F)c2c(=O)n(C[C@@H](O)CO)cnc21 [TAK-733]	4.39
COC1=CC(c2cc3ccccc3[nH]2)=N/C1=C\c1[nH]c(C)cc1C [Obatoclax]	0
CS(=O)(=O)OCCCCOS(C)(=O)=O [Busulfan]	0
COc1cccc2c1C(=O)c1c(O)c3c(c(O)c1C2=O)C[C@@](O)(C(C)=O)C[C@@H]3O[C@H]1C[C@H](N)[C@H](O)[C@H](C)O1 [Daunorubicin]	4.35
FC(F)c1nc2ccccc2n1-c1nc(N2CCOCC2)nc(N2CCOCC2)n1 [ZSTK474]	7.92
CN1CCN(c2ccc3nc(-c4c(N)c5c(F)cccc5[nH]c4=O)[nH]c3c2)CC1 [Dovitinib]	0.000114

System: CAL-148
Experiment: as above
Details: incubation time: 72 h
In short: as §1

Structure (SMILES)	drug sensitivity score
C[C@@H]1C=C2C(=O)O[C@@H]3CC[C@H](C1)[C@]23O [Galiellalactone]	0
C[C@@H]1CCN(C(=O)CC#N)C[C@@H]1N(C)c1ncnc2[nH]ccc12 [Tofacitinib]	0
Nc1nccc(-c2c(-c3ccc(F)cc3)ncn2C2CCCCC2)n1	0
CCOc1cc2ncc(C#N)c(Nc3ccc(OCc4ccccn4)c(Cl)c3)c2cc1NC(=O)/C=C/CN(C)C [Neratinib]	2.61
C[C@@]1(C(=O)Nc2ccc(F)nc2)CCCN1c1nc(Nc2cc(C3CC3)n[nH]2)c2cccn2n1	0
C#Cc1cccc(Nc2ncnc3cc(OC)c(OCCCCCCC(=O)NO)cc23)c1 [CUDC-101]	10.1
COc1ncc(-c2ccc3nccc(-c4ccnnc4)c3c2)cc1NS(=O)(=O)c1ccc(F)cc1F	12.2
Cn1c(=O)c(F)c(Nc2ccc(I)cc2F)c2c(=O)n(C[C@@H](O)CO)cnc21 [TAK-733]	0
COC1=CC(c2cc3ccccc3[nH]2)=N/C1=C\c1[nH]c(C)cc1C [Obatoclax]	0
CS(=O)(=O)OCCCCOS(C)(=O)=O [Busulfan]	0
COc1cccc2c1C(=O)c1c(O)c3c(c(O)c1C2=O)C[C@@](O)(C(C)=O)C[C@@H]3O[C@H]1C[C@H](N)[C@H](O)[C@H](C)O1 [Daunorubicin]	10
FC(F)c1nc2ccccc2n1-c1nc(N2CCOCC2)nc(N2CCOCC2)n1 [ZSTK474]	6.71
CN1CCN(c2ccc3nc(-c4c(N)c5c(F)cccc5[nH]c4=O)[nH]c3c2)CC1 [Dovitinib]	0

System: CAL-51
Experiment: as above
Details: incubation time: 72 h
In short: as §1

Structure (SMILES)	drug sensitivity score
C[C@@H]1C=C2C(=O)O[C@@H]3CC[C@H](C1)[C@]23O [Galiellalactone]	4.43
C[C@@H]1CCN(C(=O)CC#N)C[C@@H]1N(C)c1ncnc2[nH]ccc12 [Tofacitinib]	5
Nc1nccc(-c2c(-c3ccc(F)cc3)ncn2C2CCCCC2)n1	0.055
CCOc1cc2ncc(C#N)c(Nc3ccc(OCc4ccccn4)c(Cl)c3)c2cc1NC(=O)/C=C/CN(C)C [Neratinib]	1.09
C[C@@]1(C(=O)Nc2ccc(F)nc2)CCCN1c1nc(Nc2cc(C3CC3)n[nH]2)c2cccn2n1	9.26
C#Cc1cccc(Nc2ncnc3cc(OC)c(OCCCCCCC(=O)NO)cc23)c1 [CUDC-101]	12.7
COc1ncc(-c2ccc3nccc(-c4ccnnc4)c3c2)cc1NS(=O)(=O)c1ccc(F)cc1F	15.8
Cn1c(=O)c(F)c(Nc2ccc(I)cc2F)c2c(=O)n(C[C@@H](O)CO)cnc21 [TAK-733]	8.36
COC1=CC(c2cc3ccccc3[nH]2)=N/C1=C\c1[nH]c(C)cc1C [Obatoclax]	4.52
CS(=O)(=O)OCCCCOS(C)(=O)=O [Busulfan]	0
COc1cccc2c1C(=O)c1c(O)c3c(c(O)c1C2=O)C[C@@](O)(C(C)=O)C[C@@H]3O[C@H]1C[C@H](N)[C@H](O)[C@H](C)O1 [Daunorubicin]	12
FC(F)c1nc2ccccc2n1-c1nc(N2CCOCC2)nc(N2CCOCC2)n1 [ZSTK474]	11.6
CN1CCN(c2ccc3nc(-c4c(N)c5c(F)cccc5[nH]c4=O)[nH]c3c2)CC1 [Dovitinib]	0

System: CAL-85-1
Experiment: as above
Details: incubation time: 72 h
In short: as §1

Structure (SMILES)	drug sensitivity score
C[C@@H]1C=C2C(=O)O[C@@H]3CC[C@H](C1)[C@]23O [Galiellalactone]	1.79
C[C@@H]1CCN(C(=O)CC#N)C[C@@H]1N(C)c1ncnc2[nH]ccc12 [Tofacitinib]	0
Nc1nccc(-c2c(-c3ccc(F)cc3)ncn2C2CCCCC2)n1	0.583
CCOc1cc2ncc(C#N)c(Nc3ccc(OCc4ccccn4)c(Cl)c3)c2cc1NC(=O)/C=C/CN(C)C [Neratinib]	7.08
C[C@@]1(C(=O)Nc2ccc(F)nc2)CCCN1c1nc(Nc2cc(C3CC3)n[nH]2)c2cccn2n1	10.7
C#Cc1cccc(Nc2ncnc3cc(OC)c(OCCCCCCC(=O)NO)cc23)c1 [CUDC-101]	19.7
COc1ncc(-c2ccc3nccc(-c4ccnnc4)c3c2)cc1NS(=O)(=O)c1ccc(F)cc1F	16.4
Cn1c(=O)c(F)c(Nc2ccc(I)cc2F)c2c(=O)n(C[C@@H](O)CO)cnc21 [TAK-733]	6.4
COC1=CC(c2cc3ccccc3[nH]2)=N/C1=C\c1[nH]c(C)cc1C [Obatoclax]	4.01
CS(=O)(=O)OCCCCOS(C)(=O)=O [Busulfan]	0
COc1cccc2c1C(=O)c1c(O)c3c(c(O)c1C2=O)C[C@@](O)(C(C)=O)C[C@@H]3O[C@H]1C[C@H](N)[C@H](O)[C@H](C)O1 [Daunorubicin]	4.68
FC(F)c1nc2ccccc2n1-c1nc(N2CCOCC2)nc(N2CCOCC2)n1 [ZSTK474]	10.4
CN1CCN(c2ccc3nc(-c4c(N)c5c(F)cccc5[nH]c4=O)[nH]c3c2)CC1 [Dovitinib]	0

System: DU-4475
Experiment: as above
Details: incubation time: 72 h
In short: as §1

Structure (SMILES)	drug sensitivity score
C[C@@H]1C=C2C(=O)O[C@@H]3CC[C@H](C1)[C@]23O [Galiellalactone]	0
C[C@@H]1CCN(C(=O)CC#N)C[C@@H]1N(C)c1ncnc2[nH]ccc12 [Tofacitinib]	0
Nc1nccc(-c2c(-c3ccc(F)cc3)ncn2C2CCCCC2)n1	0
CCOc1cc2ncc(C#N)c(Nc3ccc(OCc4ccccn4)c(Cl)c3)c2cc1NC(=O)/C=C/CN(C)C [Neratinib]	0
C[C@@]1(C(=O)Nc2ccc(F)nc2)CCCN1c1nc(Nc2cc(C3CC3)n[nH]2)c2cccn2n1	5.67
C#Cc1cccc(Nc2ncnc3cc(OC)c(OCCCCCCC(=O)NO)cc23)c1 [CUDC-101]	9.19
COc1ncc(-c2ccc3nccc(-c4ccnnc4)c3c2)cc1NS(=O)(=O)c1ccc(F)cc1F	7.12
Cn1c(=O)c(F)c(Nc2ccc(I)cc2F)c2c(=O)n(C[C@@H](O)CO)cnc21 [TAK-733]	25.4
COC1=CC(c2cc3ccccc3[nH]2)=N/C1=C\c1[nH]c(C)cc1C [Obatoclax]	0.576
